According to US11439148B2, “Pyrimidine derivatives” (SYNGENTA PARTICIPATIONS AG, priority 2017, dated 2022):
“And” between values parts separate entries of the source, which are not always exact repeats. Equal values may be shown once.

Key:
Format in all cases: in vivo
[1] = tested on: Abutilon theophrasti (ABUTH); assay: Adjuvant efficacy with nicosulfuron, glasshouse spray test; conditions: nicosulfuron WG, mean over 15 and 60 g/ha and 3 replicates; adjuvant 0.2% v/v (none in No Adjuvant rows); % leaf area killed, 21 days after application; Tests 1-4 separate runs
Method: (§1) The efficacy of adjuvants 1-12 as adjuvants for the herbicide nicosulfuron were tested in a glasshouse against four weed species sown into standard soil in pots and cultivated under controlled conditions in a glasshouse (at 24/18° C. day/night; 16 hours light; 65% humidity). Nicosulfuron was added to the spray tank as a standard WG (water dispersible granule) formulation.
(§2) The spray tests were also carried out using nicosulfuron in conjunction with adjuvants 1-12. The adjuvant was added to the spray solution at a rate of 0.2% v/v. All spray solutions also contained 12.5% v/v of iso-Propanol. The weed species and their BBCH growth stage at spraying were Abutilon theophrasti (ABUTH; growth stage 13), Chenopodium album (CHEAL; growth stage 13-14), Digitaria sanguinalis (DIGSA; growth stage 11), and Setaria viridis (SETVI; growth stage 13). Each spray test was replicated three times. The test plants were then grown in a glasshouse under controlled conditions (at 24/18° C. day/night; 16 hours light; 65% humidity) and watered twice a day. The efficacy of the herbicide was assessed visually and expressed as a percentage of the leaf area killed. Samples were assessed at a time period of 21 days following application. The results shown in Table 1 below are mean averages over the two rates of nicosulfuron, and the three replicates.

[2] = tested on: Chenopodium album (CHEAL); assay: as above; conditions: nicosulfuron WG, mean over 15 and 60 g/ha and 3 replicates; adjuvant 0.2% v/v (none in No Adjuvant rows); % leaf area killed, 21 days after application; Tests 1-4 separate runs
Method: as §1, §2

[3] = tested on: Digitaria sanguinalis (DIGSA); assay: as above; conditions: nicosulfuron WG, mean over 15 and 60 g/ha and 3 replicates; adjuvant 0.2% v/v (none in No Adjuvant rows); % leaf area killed, 21 days after application; Tests 1-4 separate runs
Method: as §1, §2

[4] = tested on: Setaria viridis (SETVI); assay: as above; conditions: nicosulfuron WG, mean over 15 and 60 g/ha and 3 replicates; adjuvant 0.2% v/v (none in No Adjuvant rows); % leaf area killed, 21 days after application; Tests 1-4 separate runs
Method: as §1, §2

[5] = tested on: Brachiaria platyphylla (BRAPP); assay: Adjuvant efficacy with mesotrione, glasshouse spray test; conditions: mesotrione SC, mean over 30 and 60 g/ha and 3 replicates; adjuvant 0.2% v/v (none in No Adjuvant rows); % leaf area killed, 21 days after application; Tests 1-3 separate runs
[6] = tested on: weed species BRAPP, COMBE, DIGSA, POLCO; assay: Adjuvant efficacy with mesotrione, glasshouse spray test, average over all species (BRAPP set); conditions: mesotrione SC, mean over 30 and 60 g/ha; adjuvant 0.2% v/v (none in No Adjuvant rows); 21 days; Tests 1-3, species set with BRAPP (COMBE only in Test 2)
Method: The efficacy of adjuvants 1-12 as an adjuvant for the herbicide mesotrione was tested in a glasshouse against four weed species sown into standard soil in pots and cultivated under controlled conditions in a glasshouse (at 24/18° C. day/night; 16 hours light; 65% humidity). Mesotrione was added to the spray tank as a standard SC (suspension concentrate) formulation.
The spray tests were also carried out using mesotrione in conjunction with adjuvants 1-12. The adjuvants were added to the spray solution at a rate of 0.2% v/v unless otherwise stated. All spray solutions also contained 10% w/w of iso-Propanol. The weed species and their BBCH growth stage at spraying were Brachiaria platyphylla (BRAPP; growth stage 13-14) or Brachiaria plantaginea (BRAPL; growth stage 13-14), Commelina benghalensis (COMBE; growth stage 13), Digitaria sanguinalis (DIGSA; growth stage 14), and Polygonum convolvulus (POLCO; growth stage 13-14). Each spray test was replicated three times.
The test plants were then grown in a glasshouse under controlled conditions (at 24/18° C. day/night; 16 hours light; 65% humidity) and watered twice a day. The efficacy of the herbicide was assessed visually and expressed as a percentage of the leaf area killed. Samples were assessed at a time period of 21 days following application. The results shown in Table 3 below are mean averages over the two rates of mesotrione and the three replicates.

[7] = tested on: Alopecurus myosuroides (ALOMY); assay: Adjuvant efficacy with pinoxaden, glasshouse spray test; conditions: pinoxaden EC, mean over 7.5 and 15 g/ha and 3 replicates; adjuvant 0.2% v/v (none in No Adjuvant rows); % leaf area killed, 21 days after application; Tests 1-4 separate runs
Method: (§3) The efficacy of adjuvants 1-12 as adjuvants for the herbicide pinoxaden were tested in a glasshouse against four weed species, sown into standard soil in pots and cultivated under controlled conditions in a glasshouse (at 20/16° C. day/night; 16 hours light; 65% humidity). Pinoxaden was added to the spray tank as a standard EC (emulsifiable concentrate) formulation.
(§4) The spray tests were also carried out using pinoxaden in conjunction with adjuvants 1-12. The adjuvants were added to the spray solution at a rate of 0.2% v/v unless otherwise stated. All spray solutions also contained 10% w/w of iso-Propanol. The weed species and their BBCH growth stage at spraying were Avena fatua (AVEFA; growth stage 12), Lolium perenne (LOLPE; growth stage 13), Alopecurus myosuroides (ALOMY; growth stage 13), and Setaria viridis (SETVI; growth stage 13-14). Each spray test was replicated three times. The test plants were then grown in a glasshouse under controlled conditions (at 20/16° C. day/night; 16 hours light; 65% humidity) and watered twice a day. The efficacy of the herbicide was assessed visually and expressed as a percentage of the leaf area killed. Samples were assessed at a time period of 21 days following application. The results shown in Table 4 below are mean averages over the two rates of pinoxaden, and the three replicates.

[8] = tested on: Avena fatua (AVEFA); assay: as above; conditions: pinoxaden EC, mean over 7.5 and 15 g/ha and 3 replicates; adjuvant 0.2% v/v (none in No Adjuvant rows); % leaf area killed, 21 days after application; Tests 1-4 separate runs
Method: as §3, §4

[9] = tested on: Lolium perenne (LOLPE); assay: as above; conditions: pinoxaden EC, mean over 7.5 and 15 g/ha and 3 replicates; adjuvant 0.2% v/v (none in No Adjuvant rows); % leaf area killed, 21 days after application; Tests 1-4 separate runs
Method: as §3, §4

[10] = tested on: Setaria viridis (SETVI); assay: as above; conditions: pinoxaden EC, mean over 7.5 and 15 g/ha and 3 replicates; adjuvant 0.2% v/v (none in No Adjuvant rows); % leaf area killed, 21 days after application; Tests 1-4 separate runs
Method: as §3, §4

[11] = tested on: Septoria tritici; assay: Adjuvant efficacy with isopyrazam on inoculated wheat plants; conditions: isopyrazam SC, mean over 6.5, 16, 40 and 100 mg/l and 4 replicates, sprayed 4 days after inoculation, percentage of leaf area infected 17-18 days after infection, Tests 1-3 separate runs
Method: Adjuvants 6, 7, 8 and 10 were tested as adjuvants for agrochemical compositions comprising isopyrazam.
Two week old wheat plants were inoculated with the fungus Septoria tritici. […] All spray solutions also contained 10% v/v of iso-Propanol. The leaves of the plants were assessed visually 17-18 days after infection and the damage was expressed as the percentage of the leaf area infected. Each spray test was replicated four times across the four application rates.
The results shown in Table 6 below are mean averages over the four rates of isopyrazam and the four replicates.

[12] = tested on: Septoria tritici; assay: Adjuvant efficacy with epoxiconazole on inoculated wheat plants; conditions: epoxiconazole SC 1.5, 4, 8.5 and 20 mg/l, 4 replicates, adjuvant 0.1% v/v (none in No Adjuvant rows), sprayed 4 days after inoculation, percentage of leaf area infected 17-18 days after infection, Tests 1-3 separate runs
Method: Adjuvants 6, 7, 8 and 10 were tested as adjuvants for agrochemical compositions comprising epoxiconazole.
Two week old wheat plants were inoculated with the fungus Septoria tritici. […] All spray solutions also contained 10% v/v of iso-Propanol. The leaves of the plants were assessed visually 17-18 days after infection and the damage was expressed as the percentage of the leaf area infected.

SMILES	Mean % Herbicidal Activity ABUTH [1]	Mean % Herbicidal Activity CHEAL [2]	Mean % Herbicidal Activity DIGSA [3]	Mean % Herbicidal Activity SETVI [4]	Mean % Herbicidal Activity BRAPP [5] [%]	Mean % Herbicidal Activity Average over all Species [6] [%]	Mean % Herbicidal Activity ALOMY [7]	Mean % Herbicidal Activity AVEFA [8]	Mean % Herbicidal Activity LOLPE [9]	Mean % Herbicidal Activity SETVI [10]	Disease Damage Mean [11]	Disease Damage Mean [12]
CCCCCCCCCCCCOc1cc(OCCOCCOCCOCCOCCOCCOCCOC)ncn1 [Adjuvant 6]	38%	83%	74%	91%	53	76	23%	82%	62%	87%	7% and 9% and 12%	42% and 10% and 21%
CCCCCCCCCCCCOc1cc(OCCOCCOCCOCCOCCOCCOCCOCCOCCOCCOC)ncn1 [Adjuvant 7]	59%	86%	84%	96%	68	73	63%	98%	78%	97%	12%	12%
CCCCCCCCCCCCCCCCOc1cc(OCCOCCOCCOCCOCCOCCOCCOCCOCCOCCOC)ncn1 [Adjuvant 8]	53% and 66% and 74%	85% (2×) and 83%	87% and 93% and 89%	96% (2×) and 95%			2% and 15% and 22%	94% and 78% and 84%	87% and 42% and 73%	94% and 88% and 89%	20%	36%
CCCCCCCCC=CCCCCCCCCOc1cc(OCCOCCOCCOCCOCCOCCOCCOCCOCCOCCOC)ncn1 [Adjuvant 10]	58%	80%	88%	97%	61	80	9%	80%	25%	89%	17% and 14%	26%
